From patent publication US10772832B2, “Dry powder formulations for inhalation” (OTITOPIC INC., priority 2015, dated 2020) come the findings set out here.

Data set [1] in a line: Anti-solvent suspension evaluation (filtration, residue weighing). It is filed as physicochemical. To be noted: 5% w/w suspension, room temperature. The protocol:
After considering a number of factors in the end it was determined that only n-heptane and toluene fulfilled all the requirements, and therefore these were selected for further evaluation. Suspensions of acetylsalicylic acid at 5% w/w were prepared with the various anti-solvents, by charging the required amount of anti-solvent, charging the required amount of acetylsalicylic acid, and then stirring until a homogeneous suspension was obtained. The suspensions were qualitatively evaluated at room temperature and then filtered using a 0.45 μm membrane, which was then placed in an oven and dried at 60° C. until the solvent had completely evaporated. A quantitative analysis was performed on the residue that remained in the membrane by weighing the membrane before and after the test.

The nature of data set [2]: Light microscopy particle size. It is filed as physicochemical. An excerpt: Rhodine 3040 US obtained from Rhodia Inc. was used for all experiments. Particles were dispersed in 0.1% w/w docusate sodium in water and observed under a light microscope to confirm particle size. Particles ranging from 66 to 280 μm were observed confirming data from certificate of analysis, though observed “rounding” of the particulates is indicative of partial dissolution in the aqueous dispersant.
Photomicrographs of the pre- and post-micronized uncoated particles were taken by dispersing them in a solution of 0.1% w/w docusate sodium in purified water USP, and using a digital imaging light microscope (Olympus BX51 with Clemex ST-2000 controller) at 400-times or 1000-times magnification.

Each structure is given as a SMILES string.

`CC(=O)Oc1ccccc1C(=O)O` [acetylsalicylic acid]: in data set [1], the Behavior towards n-heptane entry is given as “phobic behavior” and the Solubility in toluene entry is given as “partially soluble”. Also, the “Reduction in the starting particle size by micronization” value in data set [2] is reported as “approximately 70 fold”.
